Earlier results in patent US9827227B2, “Controlled release pharmaceutical formulations of nitazoxanide” (Romark Laboratories L.C., priority 2009, dated 2017).

Legend:
DNA viruses = conditions: in vitro, in words
hepatitis C virus (HCV) = conditions: in vitro and in clinical trials, in words
[1] = after oral administration of nitazoxanide in humans

Row | SMILES | activity against certain DNA viruses (DNA viruses) | activity against hepatitis C virus (HCV) (hepatitis C virus (HCV)) | half-life in plasma [1]
1 | CC(=O)Oc1ccccc1C(=O)Nc1ncc([N+](=O)[O-])s1 [Nitazoxanide, 2-(acetolyloxy)-N-(5-nitro-2-thiazolyl) benzamide] | active | activity against hepatitis C virus | 
2 | O=C(Nc1ncc([N+](=O)[O-])s1)c1ccccc1O [tizoxanide] | active | activity against hepatitis C virus | approximately 1.5 hours
